Assay results published in patent US20230332197A1, “NUCLEOSIDES AND NUCLEOTIDES WITH 3' VINYL BLOCKING GROUP” (Illumina Singapore Pte. Ltd., priority 2022, published 2023).

Tests used:
[1] = Preliminary deblocking test of 3′ vinyl group with tetrazine reagent, HPLC UV absorption at 280 nm; type: physicochemical; conditions: 50 μM substrate, 5 mM methyltetrazine propylamine HCl, 0 to 60 Secs
Description: 50 μM of 3′ vinyl thymidine monophosphate (TMP) was deblocked in the presence of 5 mM of methyltetrazine propylamine HCl.

Pol 1901 = experiment: Template-dependent incorporation of nucleotide into primer strand by DNA polymerase, gel electrophoresis; type: biochemical, 9° N; conditions: Pol 1901 0.12 mg/mL, Mg2+ approximately 4 mM, 60° C. for 10 minutes
From the text: (§1) In this incorporation experiment, several DNA polymerases were used to test the feasibility of incorporating a 3′vinyl dTTP into a primer strand through template-dependent synthesis. For each test, 3′vinyl dTTP or an unblocked dTTP was exposed to one polymerase in the presence of a template strand having five A nucleotides overhang at the 5′ end, and the complementary primer strand has a fluorescent tag (FAM) at the 5′ end for visualization purposes. The DNA polymerases tested were Pol 812, Pol 963, Pol 1558, and Pol 1901, each at 0.12 mg/mL. The amino acid sequences of these mutants of 9° N polymerases are disclosed, for example, in U.S. Patent Publication Nos. 2020/0131484 A1 and 2020/0181587 A1, both of which are incorporated by reference herein in their entireties. The nucleotides include a 3′vinyl dTTP
(§2) The negative control nucleotide included a vinyl blocking group attached to the nitrogen atom of the T base typically involved in base-pair binding. Thus, it was expected that the negative control nucleotide would not be able to bind with the available adenosine bases of the template strand. The unaltered dTTP, on the other hand, was expected to be incorporated into the primer strand and could therefore act as a control for 5 incorporations.
(§3) For each test reaction, Mg^2+ concentration was at approximately 4 mM, while the polymerase of choice was at a concentration of 0.12 mg/mL. The reactions also had 20 μmol of nucleotide, nucleotide 1 or nucleotide 2 as diagrammed, and 4 μmol of the template strand (SEQ ID No. 1) and 4 μmol of the primer strand (SEQ ID No. 2). The reaction was carried at 60° C. for 10 minutes.
(§4) Lanes 4, 7, 10, and 13 show the nucleic acids formed when nucleotide 1 was available. Lanes 5, 8, 11, and 14 show the nucleic acids formed when nucleotide 2 was available. Lanes 6, 9, 12, and […] show the nucleic acids formed when unaltered dTTP was available.

Pol 1558 = experiment: as above; type: biochemical, 9° N; conditions: Pol 1558 0.12 mg/mL, Mg2+ approximately 4 mM, 60° C. for 10 minutes
From the text: as §1, §2, §3, §4

Pol 812 = experiment: as above; type: biochemical, 9° N; conditions: Pol 812 0.12 mg/mL, Mg2+ approximately 4 mM, 60° C. for 10 minutes
From the text: as §1, §2, §3, §4

[2] = biological target: T1, commercially available TdT (Bos taurus, UniProt P06526); experiment: Template-independent enzymatic synthesis of oligonucleotides with TdT, gel electrophoresis; type: biochemical; conditions: for nucleic acid formed from primer by TdT (extent of nucleotide addition): 5 or 10 minutes at room temperature
T1 construct: purchased
Description: A preliminary test of template-independent synthesis of oligonucleotides using a commercially available TdT was conducted. A primer strand with a FAM fluorescent tag at the 5′ end (SED ID No. 2) was introduced.
Three different nucleotides were included, depending on the test condition: a 3′ vinyl blocked dTTP (“3VT”), a 3′-vinyl blocked dTTP that is pre-heated at 60° C. for 5 minutes (“HVT”), and an unaltered dTTP with 3′ hydroxy (“dT”). HVT condition was used to test the thermal stability of the nucleotide. Each nucleotide was allowed to react with the template in the presence of the TdT for 5 or 10 minutes at room temperature.
A control was run simultaneously, which included a primer with one added nucleotide. […] Without being bound to a particular theory, it is believed that the 3′ blocking group on the 3VT nucleotide prevented synthesis beyond the addition of one nucleotide.

[3] = test system: DNA polymerases Pol 812, Pol 963, Pol 1558, and Pol 1901; experiment: Template-dependent incorporation of nucleotide into primer strand by DNA polymerases, gel electrophoresis; type: biochemical, 9° N; conditions: polymerase 0.12 mg/mL, Mg2+ approximately 4 mM, 60° C. for 10 minutes, template with five A overhang
From the text: as §1, §2
For each test reaction, Mg^2+ concentration was at approximately 4 mM, while the polymerase of choice was at a concentration of 0.12 mg/mL. […]

T1 sequence (P06526 whole entry): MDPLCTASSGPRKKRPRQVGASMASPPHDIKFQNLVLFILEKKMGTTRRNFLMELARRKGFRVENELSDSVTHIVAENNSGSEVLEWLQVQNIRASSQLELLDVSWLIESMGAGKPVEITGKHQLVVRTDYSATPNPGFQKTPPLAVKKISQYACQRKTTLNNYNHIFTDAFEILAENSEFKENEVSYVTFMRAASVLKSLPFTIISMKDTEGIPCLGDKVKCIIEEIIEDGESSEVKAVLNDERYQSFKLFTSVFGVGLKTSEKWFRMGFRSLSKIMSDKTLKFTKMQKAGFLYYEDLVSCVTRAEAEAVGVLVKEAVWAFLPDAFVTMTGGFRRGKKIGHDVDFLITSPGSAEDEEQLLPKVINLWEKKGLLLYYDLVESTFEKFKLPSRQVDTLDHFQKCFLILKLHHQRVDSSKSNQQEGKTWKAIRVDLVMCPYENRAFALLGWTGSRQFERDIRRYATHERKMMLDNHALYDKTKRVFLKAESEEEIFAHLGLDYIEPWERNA

SMILES | deblocking of 3′ vinyl group to 3′OH TMP over time [1] | capability of incorporating the nucleotide into the primer strand, compared among the four polymerases (Pol 1901) | capability of incorporating the nucleotide into the primer strand, compared among the four polymerases (Pol 1558) | capability of incorporating the nucleotide into the primer strand, compared among the four polymerases (Pol 812) | nucleic acid formed from primer by TdT (extent of nucleotide addition) [2] | nucleic acid formed from primer by TdT after pre-heating of the nucleotide (thermal stability) ([2]; nucleotide pre-heated at 60° C. for 5 minutes, reaction 5 or 10 minutes at room temperature) | number of nucleotides incorporated into the primer strand [3]
C=C[C@]1(O)C[C@H](n2cc(C)c(=O)[nH]c2=O)O[C@@H]1COP(=O)(O)O [3′ vinyl thymidine monophosphate (TMP), 3′ vinyl thymidine monophosphate] | all of the 3′vinyl TMP have been consumed or deblocked |  |  |  |  |  | 
C=CO[C@H]1C[C@H](n2cc(C)c(=O)[nH]c2=O)O[C@@H]1COP(=O)(O)OP(=O)(O)OP(=O)(O)O [nucleotide 1] |  | least capable of the four | best performance | best performance | addition of just one additional nucleotide | addition of just one additional nucleotide | 
Cc1cn([C@H]2C[C@H](O)[C@@H](COP(=O)(O)OP(=O)(O)OP(=O)(O)O)O2)c(=O)[nH]c1=O [unaltered dTTP, Deoxythymidine triphosphate, reference compound] |  |  |  |  | much longer nucleic acids |  | ≤ 5
